Experimental data from the supplement of paper PMC10307832.

compound: N[C@@H]1CCCN(c2c(/C=C3\SC(=O)NC3=O)cccc2-c2ccccc2)C1 [AZD1208] + C[C@]1(O)C[C@@H](c2nc(-c3ccc4ccc(-c5ccccc5)nc4c3)c3c(N)nccn32)C1 [Linsitinib] (partner 1 µM); test: relative viability (nuclei count vs DMSO), 5 days (fraction); higher = more cells survive; conditions: first compound 8 µM
Outline: (§1)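 Relative viability divides the nuclei count in treated wells by that in vehicle wells. Lung cancer cell lines were seeded in 1536-well plates, dosed by pin tool the next day, and fixed and stained after 5 days in one step with final 0.05% Triton X-100, 1% formaldehyde and 1 ug/ml Hoechst. Dosing was a single drug or a fixed anchor-drug dose plus five library-drug doses (not always all listed) in √10 steps, and values are medians of duplicate plates imaged at 4×.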

Compared with COR-L23, COR-L 105 is higher in relative viability: 0.771 for the first, 0.939 for the second.

Compared with IA-LM, LOU-NH91 is higher in relative viability: 0.69 for the first, 0.822 for the second.

Going from NCI-H3122 to HOP-62, the relative viability falls from 1.08 to 0.623.

Going from HCC-44 to A549, the relative viability falls from 0.593 to 0.512.

Compared with LU99A, BEN is higher in relative viability: 0.432 for the first, 0.46 for the second.

Going from HARA to HCC-78, the relative viability falls from 0.877 to 0.415.

First: NCI-H1299
Second: NCI-H1563
The relative viability of the first is lower: 1.08 for the first, 1.16 for the second.

ABC-1 showed a relative viability of 0.732.

compound: N[C@@H]1CCCN(c2c(/C=C3\SC(=O)NC3=O)cccc2-c2ccccc2)C1 [AZD1208] + CCNC(=O)c1noc(-c2cc(C(C)C)c(O)cc2O)c1-c1ccc(CN2CCOCC2)cc1 [Luminespib] (partner 0.01 µM); test: as above; conditions: first compound 0.08 µM
Outline: as §1

First: NCI-H522
Second: NCI-H1623
The relative viability of the first is higher: 1.03 for the first, 0.444 for the second.

Going from NCI-H838 to NCI-H1650, the relative viability falls from 0.294 to 0.208.

Compared with NCI-H2009, NCI-H1993 is lower in relative viability: 1.1 for the first, 0.522 for the second.

First: PC-14
Second: LCLC-103H
The relative viability of the first is lower: 0.142 for the first, 1.01 for the second.

Compared with NCI-H596, NCI-H2228 is lower in relative viability: 0.912 for the first, 0.162 for the second.

Compared with EMC-BAC-2, NCI-H2087 is lower in relative viability: 1.12 for the first, 0.166 for the second.

Going from NCI-H1666 to NCI-H647, the relative viability falls from 0.977 to 0.266.

Going from LK-2 to NCI-H2126, the relative viability rises from 0.17 to 0.9.

Compared with NCI-H2342, SK-MES-1 is higher in relative viability: 0.686 for the first, 0.771 for the second.

First: H3255
Second: COR-L23
The relative viability of the first is higher: 0.872 for the first, 0.585 for the second.

Going from COR-L 105 to LOU-NH91, the relative viability falls from 0.728 to 0.34.

Going from ChaGo-K-1 to NCI-H2170, the relative viability falls from 0.676 to 0.65.

First: NCI-H3122
Second: HOP-62
The relative viability of the first is lower: 0.0933 for the first, 0.918 for the second.

Compared with HCC-44, SW 900 is lower in relative viability: 0.996 for the first, 0.191 for the second.

Compared with LU99A, BEN is lower in relative viability: 0.306 for the first, 0.254 for the second.

First: HARA
Second: NCI-H1563
The relative viability of the first is higher: 0.558 for the first, 0.556 for the second.

Work on ABC-1 yielded a relative viability of 0.564.

same assay, conditions: first compound 0.253 µM

Compared with NCI-H522, NCI-H1623 is lower in relative viability: 1.15 for the first, 0.393 for the second.

Compared with NCI-H838, NCI-H1650 is lower in relative viability: 0.211 for the first, 0.151 for the second.

Compared with NCI-H2009, NCI-H1993 is lower in relative viability: 1.04 for the first, 0.561 for the second.

Compared with PC-14, LCLC-103H is higher in relative viability: 0.151 for the first, 1.01 for the second.

First: NCI-H596
Second: NCI-H2228
The relative viability of the first is higher: 1.19 for the first, 0.112 for the second.

Going from EMC-BAC-2 to NCI-H2087, the relative viability falls from 1.2 to 0.145.

Compared with NCI-H1666, NCI-H647 is lower in relative viability: 1.07 for the first, 0.16 for the second.

Going from LK-2 to NCI-H2126, the relative viability rises from 0.187 to 0.924.

Going from NCI-H2342 to SK-MES-1, the relative viability rises from 0.713 to 0.736.

First: H3255
Second: COR-L23
The relative viability of the first is higher: 0.982 for the first, 0.749 for the second.

Going from COR-L 105 to LOU-NH91, the relative viability falls from 0.781 to 0.342.

Going from ChaGo-K-1 to NCI-H2170, the relative viability rises from 0.655 to 0.656.

Going from NCI-H3122 to HOP-62, the relative viability rises from 0.129 to 1.07.

First: HCC-44
Second: SW 900
The relative viability of the first is higher: 1.1 for the first, 0.172 for the second.

Going from LU99A to BEN, the relative viability falls from 0.292 to 0.271.

Compared with HARA, NCI-H1563 is lower in relative viability: 1.1 for the first, 0.532 for the second.

ABC-1 was tested, and the relative viability was 0.632.

same assay, conditions: first compound 0.8 µM

Going from NCI-H522 to NCI-H1623, the relative viability falls from 0.841 to 0.365.

Going from NCI-H838 to NCI-H1650, the relative viability falls from 0.252 to 0.188.

Compared with NCI-H2009, NCI-H1993 is lower in relative viability: 1.06 for the first, 0.692 for the second.

Compared with PC-14, LCLC-103H is higher in relative viability: 0.139 for the first, 0.995 for the second.

Compared with NCI-H596, NCI-H2228 is lower in relative viability: 0.999 for the first, 0.125 for the second.

First: EMC-BAC-2
Second: NCI-H2087
The relative viability of the first is higher: 1.13 for the first, 0.14 for the second.

Compared with NCI-H1666, NCI-H647 is lower in relative viability: 0.911 for the first, 0.294 for the second.

Compared with LK-2, NCI-H2126 is higher in relative viability: 0.2 for the first, 0.848 for the second.

Going from NCI-H2342 to SK-MES-1, the relative viability falls from 0.653 to 0.607.

Going from H3255 to COR-L23, the relative viability falls from 0.698 to 0.529.

First: COR-L 105
Second: LOU-NH91
The relative viability of the first is higher: 0.826 for the first, 0.365 for the second.

First: ChaGo-K-1
Second: NCI-H2170
The relative viability of the first is lower: 0.596 for the first, 0.632 for the second.

Compared with NCI-H3122, HOP-62 is higher in relative viability: 0.0763 for the first, 0.904 for the second.

First: HCC-44
Second: SW 900
The relative viability of the first is higher: 0.963 for the first, 0.167 for the second.

First: LU99A
Second: BEN
The relative viability of the first is lower: 0.204 for the first, 0.285 for the second.

First: HARA
Second: NCI-H1563
The relative viability of the first is lower: 0.0617 for the first, 0.561 for the second.

In the case of ABC-1, the relative viability was 0.415.

same assay, conditions: first compound 2.53 µM

Going from NCI-H522 to NCI-H1623, the relative viability falls from 0.935 to 0.324.

Going from NCI-H838 to NCI-H1650, the relative viability falls from 0.327 to 0.211.

Going from NCI-H2009 to NCI-H1993, the relative viability falls from 1.09 to 0.566.

First: PC-14
Second: LCLC-103H
The relative viability of the first is lower: 0.163 for the first, 0.859 for the second.

First: NCI-H596
Second: NCI-H2228
The relative viability of the first is higher: 1.05 for the first, 0.136 for the second.

Compared with EMC-BAC-2, NCI-H2087 is lower in relative viability: 1.11 for the first, 0.141 for the second.

First: NCI-H1666
Second: NCI-H647
The relative viability of the first is higher: 1 for the first, 0.154 for the second.

Compared with LK-2, NCI-H2126 is higher in relative viability: 0.184 for the first, 0.799 for the second.

First: NCI-H2342
Second: SK-MES-1
The relative viability of the first is lower: 0.672 for the first, 0.689 for the second.

Going from H3255 to COR-L23, the relative viability falls from 0.901 to 0.721.

First: LOU-NH91
Second: ChaGo-K-1
The relative viability of the first is lower: 0.313 for the first, 0.528 for the second.

First: NCI-H2170
Second: NCI-H3122
The relative viability of the first is higher: 0.512 for the first, 0.0991 for the second.

Going from HOP-62 to HCC-44, the relative viability rises from 0.916 to 1.04.

Going from SW 900 to LU99A, the relative viability falls from 0.185 to 0.182.

First: BEN
Second: HARA
The relative viability of the first is lower: 0.244 for the first, 0.81 for the second.

Going from NCI-H1563 to ABC-1, the relative viability falls from 0.478 to 0.383.

same assay, conditions: first compound 8 µM

Compared with NCI-H522, NCI-H1623 is lower in relative viability: 0.973 for the first, 0.372 for the second.

Going from NCI-H838 to NCI-H1650, the relative viability falls from 0.22 to 0.204.

Compared with NCI-H2009, NCI-H1993 is lower in relative viability: 1.05 for the first, 0.523 for the second.

Compared with PC-14, LCLC-103H is higher in relative viability: 0.181 for the first, 0.944 for the second.

Going from NCI-H596 to NCI-H2228, the relative viability falls from 0.79 to 0.163.

Going from EMC-BAC-2 to NCI-H2087, the relative viability falls from 0.812 to 0.171.

NCI-H1666 showed a relative viability of 1.01.
